According to patent US20050164173A1, “Combined treatments and methods for treatment of mycoplasma and mycoplasma-like organism infections” (priority 2001, published 2005):

System: mycoplasma-like organisms
Assay: tritiated uracil incorporation into mycoplasma-density fractions of CEM culture supernatant (sucrose density gradient)
Assay type: cell-based
Conditions: control peak about 1200 counts
From the text: As shown in FIGS. 1A-1C, superoxide dismutase (SOD) from a vegetal source has a significant decreasing effect on mycoplasma growth. SOD was included in the medium at the first of the five day experiment. The SOD was purified from melon plant material.

superoxide dismutase [SOD]
peak of tritiated uracil incorporation (mycoplasma growth) (50 μg/ml SOD in medium from first of five days): around 500 counts
peak of tritiated uracil incorporation (mycoplasma growth) (100 μg/ml SOD in medium from first of five days): around 250 counts
